What was measured:
Format in all cases: in vivo
[1] = system: CYPES: yellow nutsedge (Cyperus esculentus); assay: Post-emergent herbicidal test, yellow nutsedge; conditions: post-emergence, 336 h, 14 days after application, read-out: Visual Growth Reduction (%) 14 Days After Application CYPES; for pest or weed control at 17.5 g/ha: 17.5 g ai/ha; for pest or weed control at 35 g/ha: 35 g ai/ha; for pest or weed control at 70 g/ha: 70 g ai/ha; for pest or weed control at 140 g/ha: 140 g ai/ha
How it was run: (§1)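 Seedlings grown in greenhouse (23-29 °C day, 22-28 °C night, ~15 h photoperiod) to first or second true leaf stage were sprayed overhead at 187 L/ha with compound in acetone/DMSO/water/isopropanol/crop oil/Triton X-155, at the high rate and ½× to 1/16× dilutions. Injury scored visually after 14 d, 0 (none) to 100% (complete kill), relative to untreated plants.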

[2] = system: ECHCG: barnyardgrass (Echinochloa crus-galli); assay: Post-emergent herbicidal test, barnyardgrass; conditions: post-emergence, 336 h, 14 days after application, read-out: Visual Growth Reduction (%) 14 Days After Application ECHCG; for pest or weed control at 17.5 g/ha: 17.5 g ai/ha; for pest or weed control at 35 g/ha: 35 g ai/ha; for pest or weed control at 70 g/ha: 70 g ai/ha; for pest or weed control at 140 g/ha: 140 g ai/ha
How it was run: as §1

[3] = system: SETFA: giant foxtail (Setaria faberi); assay: Post-emergent herbicidal test, giant foxtail; conditions: post-emergence, 336 h, 14 days after application, read-out: Visual Growth Reduction (%) 14 Days After Application SETFA; for pest or weed control at 17.5 g/ha: 17.5 g ai/ha; for pest or weed control at 35 g/ha: 35 g ai/ha; for pest or weed control at 70 g/ha: 70 g ai/ha; for pest or weed control at 140 g/ha: 140 g ai/ha
How it was run: as §1

[4] = system: BRSNN: oilseed rape, canola (Brassica napus); assay: Post-emergent herbicidal test, oilseed rape; conditions: post-emergence, 336 h, 14 days after application, read-out: Visual Growth Reduction (%) 14 Days After Application BRSNN; for pest or weed control at 17.5 g/ha: 17.5 g ai/ha; for pest or weed control at 35 g/ha: 35 g ai/ha; for pest or weed control at 70 g/ha: 70 g ai/ha; for pest or weed control at 140 g/ha: 140 g ai/ha
How it was run: as §1

[5] = system: ABUTH: velvetleaf (Abutilon theophrasti); assay: Post-emergent herbicidal test, velvetleaf; conditions: post-emergence, 336 h, 14 days after application, read-out: Visual Growth Reduction (%) 14 Days After Application ABUTH; for pest or weed control at 17.5 g/ha: 17.5 g ai/ha; for pest or weed control at 35 g/ha: 35 g ai/ha; for pest or weed control at 70 g/ha: 70 g ai/ha; for pest or weed control at 140 g/ha: 140 g ai/ha
How it was run: as §1

[6] = system: EPHHL: wild poinsettia (Euphorbia heterophylla); assay: Post-emergent herbicidal test, wild poinsettia; conditions: post-emergence, 336 h, 14 days after application, read-out: Visual Growth Reduction (%) 14 Days After Application EPHHL; for pest or weed control at 17.5 g/ha: 17.5 g ai/ha; for pest or weed control at 35 g/ha: 35 g ai/ha; for pest or weed control at 70 g/ha: 70 g ai/ha; for pest or weed control at 140 g/ha: 140 g ai/ha
How it was run: as §1

[7] = system: CIRAR: Canada thistle (Cirsium arvense); assay: Post-emergent herbicidal test, Canada thistle; conditions: post-emergence, 336 h, 14 days after application, read-out: Visual Growth Reduction (%) 14 Days After Application CIRAR; for pest or weed control at 17.5 g/ha: 17.5 g ai/ha; for pest or weed control at 35 g/ha: 35 g ai/ha; for pest or weed control at 70 g/ha: 70 g ai/ha; for pest or weed control at 140 g/ha: 140 g ai/ha
How it was run: as §1

[8] = system: SORVU: shattercane (Sorghum bicolor); assay: Post-emergent herbicidal test, shattercane; conditions: post-emergence, 336 h, 14 days after application, read-out: Visual Growth Reduction (%) 14 Days After Application SORVU; for pest or weed control at 17.5 g/ha: 17.5 g ai/ha; for pest or weed control at 35 g/ha: 35 g ai/ha; for pest or weed control at 70 g/ha: 70 g ai/ha; for pest or weed control at 140 g/ha: 140 g ai/ha
How it was run: as §1

[9] = system: DIGSA: large crabgrass (Digitaria sanguinalis); assay: Post-emergent herbicidal test, large crabgrass; conditions: post-emergence, 336 h, 14 days after application, read-out: Visual Growth Reduction (%) 14 Days After Application DIGSA; for pest or weed control at 17.5 g/ha: 17.5 g ai/ha; for pest or weed control at 35 g/ha: 35 g ai/ha; for pest or weed control at 70 g/ha: 70 g ai/ha; for pest or weed control at 140 g/ha: 140 g ai/ha
How it was run: as §1

[10] = system: VIOTR: wild violet (Viola tricolor); assay: Post-emergent herbicidal test, wild violet; conditions: post-emergence, 336 h, 14 days after application, read-out: Visual Growth Reduction (%) 14 Days After Application VIOTR; for pest or weed control at 17.5 g/ha: 17.5 g ai/ha; for pest or weed control at 35 g/ha: 35 g ai/ha; for pest or weed control at 70 g/ha: 70 g ai/ha; for pest or weed control at 140 g/ha: 140 g ai/ha
How it was run: as §1

[11] = system: IPOHE: ivyleaf morningglory (Ipomoea hederacea); assay: Post-emergent herbicidal test, ivyleaf morningglory; conditions: post-emergence, 336 h, 14 days after application, read-out: Visual Growth Reduction (%) 14 Days After Application IPOHE; for pest or weed control at 17.5 g/ha: 17.5 g ai/ha; for pest or weed control at 35 g/ha: 35 g ai/ha; for pest or weed control at 70 g/ha: 70 g ai/ha; for pest or weed control at 140 g/ha: 140 g ai/ha
How it was run: as §1

Nc1c(F)c(-c2ccc(Cl)c3c2OCO3)nc(C(=O)O)c1Cl [Compound 1, 4-amino-3-chloro-6-(7-chlorobenzo[d][1,3]dioxol-4-yl)-5-fluoropicolinic acid]
pest or weed control at 17.5 g/ha [1]: 35%
pest or weed control at 35 g/ha [1]: 40%
pest or weed control at 70 g/ha [1]: 80%
pest or weed control at 140 g/ha [1]: 90%
pest or weed control at 17.5 g/ha [2]: 0%
pest or weed control at 35 g/ha [2]: 0%
pest or weed control at 70 g/ha [2]: 30%
pest or weed control at 140 g/ha [2]: 40%
pest or weed control at 17.5 g/ha [3]: 10%
pest or weed control at 35 g/ha [3]: 10%
pest or weed control at 70 g/ha [3]: 35%
pest or weed control at 140 g/ha [3]: 50%
pest or weed control at 17.5 g/ha [4]: 55%
pest or weed control at 35 g/ha [4]: 100%
pest or weed control at 70 g/ha [4]: 100%
pest or weed control at 140 g/ha [4]: 100%
pest or weed control at 17.5 g/ha [5]: 80%
pest or weed control at 35 g/ha [5]: 85%
pest or weed control at 70 g/ha [5]: 90%
pest or weed control at 140 g/ha [5]: 95%
pest or weed control at 17.5 g/ha [6]: 0%
pest or weed control at 35 g/ha [6]: 0%
pest or weed control at 70 g/ha [6]: 5%
pest or weed control at 140 g/ha [6]: 15%
pest or weed control at 17.5 g/ha [7]: 85%
pest or weed control at 35 g/ha [7]: 85%
pest or weed control at 70 g/ha [7]: 95%
pest or weed control at 140 g/ha [7]: 90%
pest or weed control at 17.5 g/ha [8]: 35%
pest or weed control at 35 g/ha [8]: 35%
pest or weed control at 70 g/ha [8]: 50%
pest or weed control at 140 g/ha [8]: 60%
pest or weed control at 17.5 g/ha [9]: 0%
pest or weed control at 35 g/ha [9]: 20%
pest or weed control at 70 g/ha [9]: 30%
pest or weed control at 140 g/ha [9]: 50%
pest or weed control at 17.5 g/ha [10]: 40%
pest or weed control at 35 g/ha [10]: 60%
pest or weed control at 70 g/ha [10]: 70%
pest or weed control at 140 g/ha [10]: 95%
pest or weed control at 17.5 g/ha [11]: 0%
pest or weed control at 35 g/ha [11]: 0%
pest or weed control at 70 g/ha [11]: 10%
pest or weed control at 140 g/ha [11]: 15%

Nc1c(F)c(-c2cccc3c2OC(F)(F)O3)nc(C(=O)O)c1Cl [Compound 5]
pest or weed control at 17.5 g/ha [1]: 0%
pest or weed control at 35 g/ha [1]: 0%
pest or weed control at 70 g/ha [1]: 0%
pest or weed control at 140 g/ha [1]: 0%
pest or weed control at 17.5 g/ha [2]: 0%
pest or weed control at 35 g/ha [2]: 0%
pest or weed control at 70 g/ha [2]: 0%
pest or weed control at 140 g/ha [2]: 0%
pest or weed control at 17.5 g/ha [3]: 0%
pest or weed control at 35 g/ha [3]: 0%
pest or weed control at 70 g/ha [3]: 0%
pest or weed control at 140 g/ha [3]: 0%
pest or weed control at 17.5 g/ha [4]: 75%
pest or weed control at 35 g/ha [4]: 80%
pest or weed control at 70 g/ha [4]: 85%
pest or weed control at 140 g/ha [4]: 95%
pest or weed control at 17.5 g/ha [5]: 10%
pest or weed control at 35 g/ha [5]: 20%
pest or weed control at 70 g/ha [5]: 40%
pest or weed control at 140 g/ha [5]: 50%
pest or weed control at 17.5 g/ha [6]: 0%
pest or weed control at 35 g/ha [6]: 0%
pest or weed control at 70 g/ha [6]: 0%
pest or weed control at 140 g/ha [6]: 0%
pest or weed control at 17.5 g/ha [7]: 60%
pest or weed control at 35 g/ha [7]: 70%
pest or weed control at 70 g/ha [7]: 75%
pest or weed control at 140 g/ha [7]: 80%
pest or weed control at 17.5 g/ha [8]: 0%
pest or weed control at 35 g/ha [8]: 0%
pest or weed control at 70 g/ha [8]: 0%
pest or weed control at 140 g/ha [8]: 0%
pest or weed control at 17.5 g/ha [9]: 0%
pest or weed control at 35 g/ha [9]: 0%
pest or weed control at 70 g/ha [9]: 0%
pest or weed control at 140 g/ha [9]: 0%
pest or weed control at 17.5 g/ha [10]: 0%
pest or weed control at 35 g/ha [10]: 0%
pest or weed control at 70 g/ha [10]: 10%
pest or weed control at 140 g/ha [10]: 10%
pest or weed control at 17.5 g/ha [11]: 0%
pest or weed control at 35 g/ha [11]: 0%
pest or weed control at 70 g/ha [11]: 0%
pest or weed control at 140 g/ha [11]: 10%

From patent US11718604B2, “4-amino-6-(1,3-benzodioxole)picolinates and their use as herbicides” (Dow AgroSciences LLC, priority 2018, dated 2023)
